Tests used:
αvβ6 = target: T1, αvβ6 (Homo sapiens, UniProt P06756+P18564); test: αvβ6 cell adhesion inhibition test (HT-29 cells on recombinant human LAP protein); format: cell-based; conditions: recombinant human LAP coating, 200 μM MnCl2, 1 hour, read-out: IC50 (rate of inhibition of cell adhesion, αvβ6)
T1 construct: endogenous in cells; host or cells: HT-29 cells
Protocol: Test Example 2 was performed by partially modifying the method of Henderson et al. (Nat Med., 19 (12), 1617-24, 2013). In Test Example 2, the same reagents as in Test Example 1 were used unless otherwise specified.
Recombinant human LAP protein (manufactured by R&D Systems, Inc., 246-LP-025) was prepared at […] with PBS, dispensed at 100 μL/well to a 96-well plate, and left standing overnight. The plate was washed with HBSS, then subjected to blocking treatment with DMEM containing 1% BSA, and used as a coated plate in the adhesion test.
HT-29 cells cultured in McCoy's 5A medium (manufactured by Thermo Fisher Scientific, Inc., 16600) containing 10% FBS and 1% penicillin/streptomycin/amphotericin B were recovered and suspended in DMEM containing 0.1% BSA and 200 μM MnCl2 to prepare a cell suspension. A test compound was added thereto.
The cell suspension of 5×10^5 cells/mL containing the test compound was added at 100 μL/well to the coated plate and left standing for 1 hour in a 5% CO2 incubator (37° C.). One hour later, the supernatant was removed, and the plate was washed with HBSS containing 200 μM MnCl2. The cells that adhered to each well in the plate were stained with crystal violet, and the cells were lysed, followed by absorbance measurement. Inhibition without substrate coating was defined as 100% inhibition, and inhibition when DMSO was added instead of the test compound was defined as 0% inhibition. The rate of inhibition of cell adhesion by the test compound was calculated according to the following expression.
Rate of inhibition of cell adhesion (%)=[1−{(Absorbance in the case of adding the test compound)−(Absorbance without substrate coating)}/{(Absorbance in the case of adding DMS)−(Absorbance without substrate coating)}]×100
An IC50 value was calculated from the rate of inhibition of cell adhesion by the test compound. A: IC50<3 nM, B: 3 nM≤IC50<10 nM, C: 10 nM≤IC50<30 nM, D: 30 nM≤IC50<100 nM, or E: IC50≥100 nM.

[1] = Transcellular transport test using Caco2 cell; format: in vitro ADME; conditions: human, Caco-2; Caco2 monolayer, A-to-B, 10 μM compound, pH 7.4, 90 minutes
Protocol: Caco2 cells (purchased from ATCC) were cultured in DMEM medium (Thermo Fisher Scientific, Inc., 11965) containing 10% FBS (Thermo Fisher Scientific, Inc., 10082) and 1% penicillin/streptomycin/amphotericin B (Thermo Fisher Scientific, Inc., 15240). A transcellular transport test was carried out in accordance with MultiScreen Caco2 Drug Transport Assembly in a 96-well system (Application Note AN1727EN, MultiScreen Caco-2 Assay System, Merck) by partially modifying it. The Caco2 cells were inoculated at a cell density of 4×10^4 cells/well onto a micropore polycarbonate insert of a 96-well plate (Merck, Millcell-96 culture insert plate 0.4 μm pore size, well membrane area=0.11 cm^2, PSHT004S5) and cultured for 20 to 22 days, and the resulting monolayer was used in the transcellular transport test. The medium of the inoculated cells was replaced with a fresh one every 3 to 4 days.
Apical-to-basolateral (A-to-B) transport in the Caco2 cell monolayer membrane was performed by using HBSS (Thermo Fisher Scientific, Inc., 14025) medium (pH=7.4) containing 20 mM HEPES (Thermo Fisher Scientific, Inc., 15630), and adding HEPES-containing HBSS medium containing 10 μM compound (a 10 mM solution of the compound in DMSO was added at a 1000-fold dilution; final DMSO concentration: 0.1%) at 75 μL/well to the apical side and HEPES-containing HBSS medium supplemented with no compound at 250 μL/well to the basolateral side, followed by culture at 37° C. for 90 minutes. After culture, a 100 μL aliquot was collected from the basolateral side, and the concentration of a permeated compound was measured by LC-MS/MS under measurement conditions mentioned later. Papp (apparent permeability; cm/sec) was calculated from the determined concentration. Papp was determined according to the expression given below by calculating the slope (dA/dt; nmol/sec) of a straight line drawn between two points 0 minutes and zero amount of the compound in a graph plotted with an assay time (90 min) on the abscissa against the amount of the compound in the solution on the permeated side on the ordinate. As for an assay concentration, the concentration in the compound in the HEPES-containing HBSS medium containing the added compound was measured by UV-HPLC under measurement conditions mentioned later.
Papp (cm/sec)=C0×S×(dA/dt)
C0: assay concentration, S: plate membrane area=0.11 cm^2

T1 sequence (P06756 31-889 limits assumed): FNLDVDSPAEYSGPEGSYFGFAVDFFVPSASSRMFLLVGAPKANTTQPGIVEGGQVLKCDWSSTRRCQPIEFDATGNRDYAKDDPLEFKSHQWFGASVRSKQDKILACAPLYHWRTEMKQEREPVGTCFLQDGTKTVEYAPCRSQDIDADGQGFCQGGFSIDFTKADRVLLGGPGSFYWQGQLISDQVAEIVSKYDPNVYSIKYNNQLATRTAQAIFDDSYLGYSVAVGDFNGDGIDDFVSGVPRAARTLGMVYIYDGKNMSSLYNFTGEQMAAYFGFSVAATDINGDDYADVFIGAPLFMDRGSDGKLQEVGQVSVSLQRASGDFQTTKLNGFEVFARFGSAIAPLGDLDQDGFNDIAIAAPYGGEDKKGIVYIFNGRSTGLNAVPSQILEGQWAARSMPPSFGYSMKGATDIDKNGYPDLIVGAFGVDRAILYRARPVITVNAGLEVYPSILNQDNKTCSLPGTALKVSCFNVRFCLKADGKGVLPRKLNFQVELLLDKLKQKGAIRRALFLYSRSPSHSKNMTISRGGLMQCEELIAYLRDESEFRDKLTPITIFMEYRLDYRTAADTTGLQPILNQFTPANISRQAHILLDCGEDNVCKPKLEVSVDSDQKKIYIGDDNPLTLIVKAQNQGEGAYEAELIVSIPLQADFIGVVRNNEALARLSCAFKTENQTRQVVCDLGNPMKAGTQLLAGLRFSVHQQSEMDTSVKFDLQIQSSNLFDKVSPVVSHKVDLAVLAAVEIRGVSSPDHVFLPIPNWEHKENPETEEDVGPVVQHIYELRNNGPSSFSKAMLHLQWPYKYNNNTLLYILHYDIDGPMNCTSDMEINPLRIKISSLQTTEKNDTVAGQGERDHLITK
T1 sequence (P06756 891-1048 limits assumed): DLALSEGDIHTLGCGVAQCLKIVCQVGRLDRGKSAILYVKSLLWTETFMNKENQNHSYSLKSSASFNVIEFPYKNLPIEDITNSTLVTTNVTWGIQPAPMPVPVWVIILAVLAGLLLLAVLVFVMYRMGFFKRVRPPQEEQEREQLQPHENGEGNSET
T1 sequence (P18564 22-788): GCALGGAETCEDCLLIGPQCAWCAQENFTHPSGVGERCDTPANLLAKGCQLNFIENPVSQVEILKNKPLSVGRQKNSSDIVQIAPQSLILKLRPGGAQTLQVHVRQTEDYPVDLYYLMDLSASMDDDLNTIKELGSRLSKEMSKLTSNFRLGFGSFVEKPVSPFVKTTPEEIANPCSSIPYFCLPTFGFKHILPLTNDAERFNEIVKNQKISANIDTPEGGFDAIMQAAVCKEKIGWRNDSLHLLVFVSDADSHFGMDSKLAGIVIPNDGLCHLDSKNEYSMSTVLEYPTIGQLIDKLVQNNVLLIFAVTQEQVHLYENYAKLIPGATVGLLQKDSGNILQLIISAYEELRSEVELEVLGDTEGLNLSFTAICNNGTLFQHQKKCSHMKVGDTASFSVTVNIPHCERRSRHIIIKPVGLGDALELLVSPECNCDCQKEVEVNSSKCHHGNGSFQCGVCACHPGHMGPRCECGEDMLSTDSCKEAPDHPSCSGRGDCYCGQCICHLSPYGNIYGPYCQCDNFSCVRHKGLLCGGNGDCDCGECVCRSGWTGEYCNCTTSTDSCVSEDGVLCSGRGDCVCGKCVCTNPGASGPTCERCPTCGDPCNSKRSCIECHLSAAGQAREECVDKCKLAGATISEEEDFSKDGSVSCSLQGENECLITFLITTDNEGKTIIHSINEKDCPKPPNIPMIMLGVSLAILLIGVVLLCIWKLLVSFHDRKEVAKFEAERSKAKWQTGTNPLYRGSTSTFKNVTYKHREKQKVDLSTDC

O=C(O)C[C@H](NC(=O)CNC(=O)c1cc(NC2=NCC(F)CN2)c2cn[nH]c2c1)c1cc(OC(F)(F)F)ccc1F (stereo partly drawn) [Example 33-(b), (3S)-3-(2-(4-((5-fluoro-1,4,5,6-tetrahydropyrimidin-2-yl)amino)-1H-indazole-6-carboxamido)acetamido)-3-(2-fluoro-5-(trifluoromethoxy)phenyl)propanoic acid]
IC50 (αvβ6): < 3 nM | Papp A→B at 90 min, 10 μM [1]: > 10 nm/s

O=C(O)C[C@H](NC(=O)CNC(=O)c1cc(NC2=NCC(F)CN2)c2cn[nH]c2c1)c1ccc(F)c(OC(F)(F)F)c1 (stereo partly drawn) [Example 34-(b), (3S)-3-(2-(4-((5-fluoro-1,4,5,6-tetrahydropyrimidin-2-yl)amino)-1H-indazole-6-carboxamido)acetamido)-3-(4-fluoro-3-(trifluoromethoxy)phenyl)propanoic acid]
IC50 (αvβ6): < 3 nM | Papp A→B at 90 min, 10 μM [1]: > 10 nm/s

O=C(O)C[C@H](NC(=O)CNC(=O)c1cc(NC2=NCC(F)CN2)c2cn[nH]c2c1)c1cccc(C(F)(F)F)c1 (stereo partly drawn) [Example 35-(b), (3S)-3-(2-(4-((5-fluoro-1,4,5,6-tetrahydropyrimidin-2-yl)amino)-1H-indazole-6-carboxamido)acetamido)-3-(3-(trifluoromethyl)phenyl)propanoic acid]
IC50 (αvβ6): < 3 nM | Papp A→B at 90 min, 10 μM [1]: > 10 nm/s

O=C(O)C[C@H](NC(=O)CNC(=O)c1cc(NC2=NCC(F)CN2)c2cn[nH]c2c1)c1cccc(OC(F)(F)F)c1 (stereo partly drawn) [Example 36-(b), (3S)-3-(2-(4-((5-fluoro-1,4,5,6-tetrahydropyrimidin-2-yl)amino)-1H-indazole-6-carboxamido)acetamido)-3-(3-(trifluoromethoxy)phenyl)propanoic acid]
IC50 (αvβ6): < 3 nM | Papp A→B at 90 min, 10 μM [1]: > 10 nm/s

O=C(O)C[C@H](NC(=O)CNC(=O)c1cc(NC2=NCC(F)CN2)c2cn[nH]c2c1)c1cccc(OC(F)F)c1 (stereo partly drawn) [Example 37-(b), (3S)-3-(3-(difluoromethoxy)phenyl)-3-(2-(4-((5-fluoro-1,4,5,6-tetrahydropyrimidin-2-yl)amino)-1H-indazole-6-carboxamido)acetamido)propanoic acid]
IC50 (αvβ6): < 3 nM | Papp A→B at 90 min, 10 μM [1]: > 10 nm/s

O=C(O)C[C@H](NC(=O)CNC(=O)c1cc(NC2=NCC(F)CN2)c2cn[nH]c2c1)c1cccc(C(F)F)c1 (stereo partly drawn) [Example 38-(b), (3S)-3-(3-(difluoromethyl)phenyl)-3-(2-(4-((5-fluoro-1,4,5,6-tetrahydropyrimidin-2-yl)amino)-1H-indazole-6-carboxamido)acetamido)propanoic acid]
IC50 (αvβ6): < 3 nM | Papp A→B at 90 min, 10 μM [1]: > 10 nm/s

O=C(O)C[C@H](NC(=O)CNC(=O)c1cc(NC2=NCC(F)CN2)c2cn[nH]c2c1)c1cccc(C2CC2)c1 (stereo partly drawn) [Example 39-(b), (3S)-3-(3-cyclopropylphenyl)-3-(2-(4-((5-fluoro-1,4,5,6-tetrahydropyrimidin-2-yl)amino)-1H-indazole-6-carboxamido)acetamido)propanoic acid]
IC50 (αvβ6): < 3 nM | Papp A→B at 90 min, 10 μM [1]: > 10 nm/s

O=C(O)C[C@H](NC(=O)CNC(=O)c1cc(NC2=NCC(F)CN2)c2cn[nH]c2c1)c1cccc(OC2CC2)c1 (stereo partly drawn) [Example 40-(b), (3S)-3-(3-cyclopropoxyphenyl)-3-(2-(4-((5-fluoro-1,4,5,6-tetrahydropyrimidin-2-yl)amino)-1H-indazole-6-carboxamido)acetamido)propanoic acid]
IC50 (αvβ6): < 3 nM | Papp A→B at 90 min, 10 μM [1]: > 10 nm/s

O=C(O)C[C@H](NC(=O)CNC(=O)c1cc(NC2=NCC(F)CN2)c2cn[nH]c2c1)c1cccc(Cl)c1 (stereo partly drawn) [Example 41-(b), (3S)-3-(3-chlorophenyl)-3-(2-(4-((5-fluoro-1,4,5,6-tetrahydropyrimidin-2-yl)amino)-1H-indazole-6-carboxamido)acetamido)propanoic acid]
IC50 (αvβ6): < 3 nM | Papp A→B at 90 min, 10 μM [1]: > 10 nm/s

O=C(O)C[C@H](NC(=O)CNC(=O)c1cc(NC2=NCC(F)CN2)c2cn[nH]c2c1)c1cccc(Br)c1 (stereo partly drawn) [Example 42-(b), (3S)-3-(3-bromophenyl)-3-(2-(4-((5-fluoro-1,4,5,6-tetrahydropyrimidin-2-yl)amino)-1H-indazole-6-carboxamido)acetamido)propanoic acid]
IC50 (αvβ6): < 3 nM | Papp A→B at 90 min, 10 μM [1]: > 10 nm/s

O=C(O)C[C@H](NC(=O)CNC(=O)c1cc(NC2=NCC(F)CN2)c2cn[nH]c2c1)c1cccc(-n2cccn2)c1 (stereo partly drawn) [Example 43-(b), (3S)-3-(3-(1H-pyrazol-1-yl)phenyl)-3-(2-(4-((5-fluoro-1,4,5,6-tetrahydropyrimidin-2-yl)amino)-1H-indazole-6-carboxamido)acetamido)propanoic acid]
IC50 (αvβ6): < 3 nM | Papp A→B at 90 min, 10 μM [1]: > 10 nm/s

Cc1cc(C)n(-c2cccc([C@H](CC(=O)O)NC(=O)CNC(=O)c3cc(NC4=NCC(F)CN4)c4cn[nH]c4c3)c2)n1 (stereo partly drawn) [Example 44-(b), (3S)-3-(3-(3,5-dimethyl-1H-pyrazol-1-yl)phenyl)-3-(2-(4-((5-fluoro-1,4,5,6-tetrahydropyrimidin-2-yl)amino)-1H-indazole-6-carboxamido)acetamido)propanoic acid]
IC50 (αvβ6): < 3 nM | Papp A→B at 90 min, 10 μM [1]: 5 to 10 nm/s

O=C(O)C[C@H](NC(=O)CNC(=O)c1cc(NC2=NCC(F)CN2)c2cn[nH]c2c1)c1cccc(N2CCOCC2)c1 (stereo partly drawn) [Example 45-(b), (3S)-3-(2-(4-((5-fluoro-1,4,5,6-tetrahydropyrimidin-2-yl)amino)-1H-indazole-6-carboxamido)acetamido)-3-(3-morpholinophenyl)propanoic acid]
IC50 (αvβ6): 3 to 10 nM | Papp A→B at 90 min, 10 μM [1]: 5 to 10 nm/s

O=C(O)C[C@H](NC(=O)CNC(=O)c1cc(NC2=NCC(F)CN2)c2cn[nH]c2c1)c1ccc(OC(F)F)cc1 (stereo partly drawn) [Example 46-(b), (3S)-3-(4-(difluoromethoxy)phenyl)-3-(2-(4-((5-fluoro-1,4,5,6-tetrahydropyrimidin-2-yl)amino)-1H-indazole-6-carboxamido)acetamido)propanoic acid]
IC50 (αvβ6): 3 to 10 nM | Papp A→B at 90 min, 10 μM [1]: > 10 nm/s

O=C(O)C[C@H](NC(=O)CNC(=O)c1cc(NC2=NCC(F)CN2)c2cn[nH]c2c1)c1ccc(C(F)(F)F)cc1 (stereo partly drawn) [Example 47-(b), (3S)-3-(2-(4-((5-fluoro-1,4,5,6-tetrahydropyrimidin-2-yl)amino)-1H-indazole-6-carboxamido)acetamido)-3-(4-(trifluoromethyl)phenyl)propanoic acid]
IC50 (αvβ6): 3 to 10 nM | Papp A→B at 90 min, 10 μM [1]: > 10 nm/s

O=C(O)C[C@H](NC(=O)CNC(=O)c1cc(NC2=NCC(F)CN2)c2c(F)n[nH]c2c1)c1cc(Cl)cc(C(F)(F)F)c1 (stereo partly drawn) [Example 48-(b), (3S)-3-(3-chloro-5-(trifluoromethyl)phenyl)-3-(2-(3-fluoro-4-((5-fluoro-1,4,5,6-tetrahydropyrimidin-2-yl)amino)-1H-indazole-6-carboxamido)acetamido) propanoic acid]
IC50 (αvβ6): < 3 nM | Papp A→B at 90 min, 10 μM [1]: > 10 nm/s

Source: patent publication US20230192661A1, “1, 4, 5, 6-TETRAHYDROPYRIMIDINE-2-AMINE DERIVATIVE” (UBE Corporation, priority 2020, published 2023)
